The values that follow come from patent US7446199B2, “Compositions useful as inhibitors of protein kinases” (Vertex Pharmaceuticals Incorporated, priority 2003, dated 2008).

The test concerns the target T1, c-KIT (Homo sapiens, UniProt P10721).
T1 construct: 0.02% BSA and 25 nM c-KIT
As to the kind of experiment: Inhibition of c-KIT, radiometric filter-binding assay. To be noted: 700 μM ATP, 0.5 mg/mL pE4Y, room temperature. The format is biochemical. On the procedure: Compounds are screened for their ability to inhibit c-KIT activity using a radiometric filter-binding assay. This assay monitors the ^33P incorporation into a substrate poly(Glu, Tyr) 4:1 (pE4Y). Reactions are carried out in a solution containing 100 mM HEPES (pH 7.5), 10 mM MgCl2, 25 mM NaCl, 1 mM DTT, 0.01% BSA and 2.5% DMSO. Final substrate concentrations in the assay were 700 μM ATP and 0.5 mg/mL pE4Y (both from Sigma Chemicals, St Louis, Mo.). The final concentration of compounds is generally between 0.01 and 5 μM. Typically, a 12-point titration is conducted by preparing serial dilutions from 10 mM DMSO stock of test compound. Reactions were carried out at room temperature.
Two assay solutions are prepared. Solution 1 contains 100 mM HEPES (pH 7.5), 10 mM MgCl2, 25 mM NaCl, 1 mg/ml pE4Y and 1.4 mM ATP(containing 0.5 μCi of [γ-^33P]ATP for each reaction). Solution 2 contains 100 mM HEPES (pH 7.5), 10 mM MgCl2, 25 mM NaCl, 2 mM DTT, 0.02% BSA and 25 nM c-KIT. The assay is run on a 96 well plate by mixing 33 μL of Solution1 and 1.65 μL of the test compounds. The reaction is initiated with 33 μL of Solution2. After incubation for 20 minutes at room temperature, the reaction was stopped with 50 μL of 10% TCA containing 0.2 mM of ATP. All of the reaction volume is then transferred to a filter plate and washed with 5% TCA by a Harvester9600 from TOMTEC (Hamden, Conn.). The amount of ^33P incorporation into pE4y is analyzed by a Packard TopCount Microplate Scintillation Counter (Meriden, Conn.). The data is fitted using Prism software to get an IC50 or Ki.

Each structure is given as a SMILES string. Where only a bound is given, the exact number is not on record here.

T1 sequence (P10721 26-976): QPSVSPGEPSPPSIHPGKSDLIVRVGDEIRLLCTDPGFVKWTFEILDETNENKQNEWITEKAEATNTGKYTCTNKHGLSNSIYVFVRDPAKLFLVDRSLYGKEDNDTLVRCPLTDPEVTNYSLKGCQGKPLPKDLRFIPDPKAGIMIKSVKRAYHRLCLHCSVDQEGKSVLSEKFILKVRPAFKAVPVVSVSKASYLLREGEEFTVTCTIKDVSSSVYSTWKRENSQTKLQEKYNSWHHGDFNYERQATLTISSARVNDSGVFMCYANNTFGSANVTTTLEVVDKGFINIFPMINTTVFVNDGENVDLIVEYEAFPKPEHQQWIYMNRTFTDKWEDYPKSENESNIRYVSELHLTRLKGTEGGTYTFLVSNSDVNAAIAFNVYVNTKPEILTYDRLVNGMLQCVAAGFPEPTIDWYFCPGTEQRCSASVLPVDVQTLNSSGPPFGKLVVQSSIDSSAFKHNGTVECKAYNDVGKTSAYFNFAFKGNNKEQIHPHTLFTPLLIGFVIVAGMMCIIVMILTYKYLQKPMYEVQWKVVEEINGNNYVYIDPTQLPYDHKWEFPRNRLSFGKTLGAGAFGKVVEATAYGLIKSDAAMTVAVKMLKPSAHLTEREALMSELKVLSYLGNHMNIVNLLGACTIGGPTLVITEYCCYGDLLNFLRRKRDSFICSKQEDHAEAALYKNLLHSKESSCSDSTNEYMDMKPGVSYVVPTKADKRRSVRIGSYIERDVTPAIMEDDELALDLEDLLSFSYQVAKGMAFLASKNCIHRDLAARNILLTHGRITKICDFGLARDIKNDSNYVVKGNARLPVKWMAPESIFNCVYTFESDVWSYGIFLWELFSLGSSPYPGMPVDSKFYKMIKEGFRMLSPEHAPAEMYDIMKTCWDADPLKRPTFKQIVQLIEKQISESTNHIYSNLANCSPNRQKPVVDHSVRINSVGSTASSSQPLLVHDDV

The term Ki denotes a measure of affinity in units of concentration, obtained from inhibition or displacement. Read a high Ki as lower affinity. The compound `Fc1ccc(-c2cnoc2-c2c[nH]c3ncccc23)c(F)c1F` [Compound 40, 3-[4-(2,3,4-Trifluoro-phenyl)-isoxazol-5-yl]-1H-pyrrolo [2,3-b]pyridine] gave a Ki of 200 to 1000 nM.

In turn, `CN(C)CC#Cc1cnc2[nH]cc(-c3oncc3-c3cccc(F)c3F)c2c1` [Compound 53, (3-{3-[4-(2,3-Difluoro-phenyl)-isoxazol-5-yl]-1H-pyrrolo[2,3-b]pyridin-5-yl}-prop-2-ynyl)-dimethyl-amine] came in with a Ki below 200 nM.

The compound `CN1CCC(c2cnc3[nH]cc(-c4oncc4-c4cccc(F)c4F)c3c2)CC1` [Compound 60, 3-[4-(2,3-Difluoro-phenyl)-isoxazol-5-yl]-5-(1-methyl-piperidin-4-yl)-1H-pyrrolo[2,3-b]pyridine] showed an inhibitory constant (Ki) of 200 to 1000 nM.

As to `Fc1cccc(-c2cnoc2-c2c[nH]c3ncc(C4CCNCC4)cc23)c1F` [Compound 62, 3-[4-(2,3-Difluoro-phenyl)-isoxazol-5-yl]-5-piperidin-4-yl-1H-pyrrolo[2,3-b]pyridine], the inhibition constant (Ki) is 200 to 1000 nM.

The compound `Fc1ccc(-c2cnc3[nH]cc(-c4oncc4-c4cccc(F)c4F)c3c2)cn1` [Compound 69, 3-[4-(2,3-Difluoro-phenyl)-isoxazol-5-yl]-5-(6-fluoro-pyridin-3-yl)-1H-pyrrolo[2,3-b]pyridine] had a Ki below 200 nM.

Regarding `CCN1CCC(c2cnc3[nH]cc(-c4oncc4-c4cccc(F)c4F)c3c2)CC1` [Compound 72, 3-[4-(2,3-Difluoro-phenyl)-isoxazol-5-yl]-5-(1-ethyl-piperidin-4-yl)-1H-pyrrolo[2,3-b]pyridine], the Ki is below 200 nM.

Compound `COc1ccnc(-c2cnc3[nH]cc(-c4oncc4-c4cccc(F)c4F)c3c2)c1` [Compound 78, 3-[4-(2,3-Difluoro-phenyl)-isoxazol-5-yl]-5-(4-methoxy-pyridin-2-yl)-1H-pyrrolo[2,3-b]pyridine] returned a Ki below 200 nM.

As for `Fc1cccc(-c2cnoc2-c2c[nH]c3ncc(-c4cncnc4)cc23)c1F` [Compound 85, 3-[4-(2,3-Difluoro-phenyl)-isoxazol-5-yl]-5-pyrimidin-5-yl-1H-pyrrolo[2,3-b]pyridine], the inhibition constant Ki is below 200 nM.

`COC(=O)c1cnc2[nH]cc(-c3oncc3-c3cccc(F)c3F)c2c1` [Compound 105, 3-[4-(2,3-Difluoro-phenyl)-isoxazol-5-yl]-1H-pyrrolo[2,3-b]pyridine-5-carboxylic acid methyl ester] came in with a Ki below 200 nM.

As to `Fc1cccc(-n2cnnc2-c2c[nH]c3ncc(-c4ccc(CN5CCOCC5)cc4)cc23)c1F` [Compound 109, 3-[4-(2,3-Difluoro-phenyl)-4H-[1,2,4]triazol-3-yl]-5-(4-morpholin-4-ylmethyl-phenyl)-1H-pyrrolo[2,3-b]pyridine], the Ki is below 200 nM.

In turn, `CN1CCN(c2ccc(-c3cnc4[nH]cc(-c5nncn5-c5cccc(F)c5F)c4c3)cc2)CC1` [Compound 110, 3-[4-(2,3-Difluoro-phenyl)-4H-[1,2,4]triazol-3-yl]-5-[4-(4-methyl-piperazin-1-yl)-phenyl]-1H-pyrrolo[2,3-b]pyridine] registered an inhibition constant Ki below 200 nM.

Consider `CN1CCN(c2ccc(-c3cnc4[nH]cc(-c5nncn5-c5cccc(F)c5F)c4c3)cn2)CC1` [Compound 112], for which the inhibition constant (Ki) was in the range of 200 to 1000 nM.

`Fc1cccc(-n2cnnc2-c2c[nH]c3ncc(-c4cccnc4)cc23)c1F` [Compound 113, 3-[4-(2,3-Difluoro-phenyl)-4H-[1,2,4]triazol-3-yl]-5-pyridin-3-yl-1H-pyrrolo[2,3-b]pyridine] yielded an inhibition constant (Ki) of 200 to 1000 nM.

With `Fc1cccc(-n2cnnc2-c2c[nH]c3ncc(-c4ccncc4)cc23)c1F` [Compound 114, 3-[4-(2,3-Difluoro-phenyl)-4H-[1,2,4]triazol-3-yl]-5-pyridin-4-yl-1H-pyrrolo[2,3-b]pyridine], the Ki is below 200 nM.

Compound `Fc1cccc(-n2cnnc2-c2c[nH]c3ncc(-c4ccc(N5CCC[C@H]5CN5CCCC5)nc4)cc23)c1F` [Compound 115, 3-[4-(2,3-Difluoro-phenyl)-4H-[1,2,4]triazol-3-yl]-5-[6-(2-pyrrolidin-1-ylmethyl-pyrrolidin-1-yl)-pyridin-3-yl]-1H-pyrrolo[2,3-b]pyridine] gave an inhibition constant (Ki) of 200 to 1000 nM.

Compound `OC1CCN(c2ccc(-c3cnc4[nH]cc(-c5nncn5-c5cccc(F)c5F)c4c3)cn2)CC1` [Compound 116, 5′-{3-[4-(2,3-Difluoro-phenyl)-4H-[1,2,4]triazol-3-yl]-1H-pyrrolo[2,3-b]pyridin-5-yl}-3,4,5,6-tetrahydro-2H-[1,2′]bi-pyridinyl-4-ol] displayed a Ki of 200 to 1000 nM.

`CN1CCCN(c2ccc(-c3cnc4[nH]cc(-c5nncn5-c5cccc(F)c5F)c4c3)cn2)CC1` [Compound 117, 3-[4-(2,3-Difluoro-phenyl)-4H-[1,2,4]triazol-3-yl]-5-[6-(4-methyl-[1,4]diazepan-1-yl)-pyridin-3-yl]-1H-pyrrolo [2,3-b]-pyridine] yielded a Ki of 200 to 1000 nM.

For the compound `Fc1cccc(-n2cnnc2-c2c[nH]c3ncc(-c4ccc(N5CCCC5)nc4)cc23)c1F` [Compound 118, 3-[4-(2,3-Difluoro-phenyl)-4H-[1,2,4]triazol-3-yl]-5-(6-pyrrolidin-1-yl-pyridin-3-yl)-1H-pyrrolo[2,3-b]pyridine], the Ki lay in the range of 200 to 1000 nM.

As to `CN(C)CCNc1ccc(-c2cnc3[nH]cc(-c4nncn4-c4cccc(F)c4F)c3c2)cn1` [Compound 119, N′-(5-{3-[4-(2,3-Difluoro-phenyl)-4H-[1,2,4]triazol-3-yl]-1H-pyrrolo[2,3-b]pyridin-5-yl}-pyridin-2-yl)-N,N-dimethyl-ethane-1,2-diamine], the inhibitory constant (Ki) was in the range of 200 to 1000 nM.

In the case of `Fc1cccc(-c2cnoc2-c2c[nH]c3ncc(C4=CCC(NCc5ccccc5)CC4)cc23)c1F` (stereo not shown) [Compound 136, Benzyl-(4-{3-[4-(2,3-difluoro-phenyl)-isoxazol-5-yl]-1H-pyrrolo[2,3-b]pyridin-5-yl}-cyclohex-3-enyl)-amine], the Ki is below 200 nM.

Turning to `NC1CC=C(c2cnc3[nH]cc(-c4oncc4-c4cccc(F)c4F)c3c2)CC1` (stereo not shown) [Compound 137, 4-{3-[4-(2,3-Difluoro-phenyl)-isoxazol-5-yl]-1H-pyrrolo [2,3-b]pyridin-5-yl}-cyclohex-3-enylamine], the Ki was below 200 nM.

Take `CN(C)C1CC=C(c2cnc3[nH]cc(-c4oncc4-c4cccc(F)c4F)c3c2)CC1` (stereo not shown) [Compound 138, (4-{3-[4-(2,3-Difluoro-phenyl)-isoxazol-5-yl]-1H-pyrrolo[2,3-b]pyridin-5-yl}-cyclohex-3-enyl)-dimethyl-amine]: the Ki is below 200 nM.

`Fc1cccc(-c2cnoc2-c2c[nH]c3ncc(C4=CCC(N5CCOCC5)CC4)cc23)c1F` (stereo not shown) [Compound 139, 3-[4-(2,3-Difluoro-phenyl)-isoxazol-5-yl]-5-(4-morpholin-4-yl-cyclohex-1-enyl)-1H-pyrrolo[2,3-b]pyridine] gave an inhibition constant (Ki) below 200 nM.

In the case of `CS(=O)(=O)NC1CC=C(c2cnc3[nH]cc(-c4oncc4-c4cccc(F)c4F)c3c2)CC1` (stereo not shown) [Compound 140, N-(4-{3-[4-(2,3-Difluoro-phenyl)-isoxazol-5-yl]-1H-pyrrolo[2,3-b]pyridin-5-yl}-cyclohex-3-enyl)-methanesulfonamide], the Ki is below 200 nM.

`Cn1ccc2c(-c3oncc3-c3cccc(F)c3F)c[nH]c2c1=O` [Compound 144, 3-[4-(2,3-Difluoro-phenyl)-isoxazol-5-yl]-6-methyl-1,6-dihydro-pyrrolo[2,3-c]pyridin-7-one] registered a Ki of 200 to 1000 nM.
